# Entries after “also recorded” stand apart in the source; their conditions may differ.
# What was measured:
# Kir4.1/5.1 = target: T1, Kir4.1/5.1 (Homo sapiens, UniProt P78508+Q9NPI9); assay: Kir family selectivity thallium flux assay; format: cell-based
# T1 construct: expressed in transfected cells
# T1 sequence (P78508 1-379): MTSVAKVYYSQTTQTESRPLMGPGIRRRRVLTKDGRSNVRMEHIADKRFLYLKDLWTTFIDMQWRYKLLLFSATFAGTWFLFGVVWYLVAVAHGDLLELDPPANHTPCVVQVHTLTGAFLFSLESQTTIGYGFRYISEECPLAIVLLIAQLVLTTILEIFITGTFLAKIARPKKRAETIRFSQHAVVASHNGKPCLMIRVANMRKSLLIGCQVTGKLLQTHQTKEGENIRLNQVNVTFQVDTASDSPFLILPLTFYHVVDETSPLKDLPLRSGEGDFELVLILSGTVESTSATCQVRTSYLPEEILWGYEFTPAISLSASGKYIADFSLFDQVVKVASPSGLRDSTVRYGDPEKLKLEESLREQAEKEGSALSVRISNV
# T1 sequence (Q9NPI9 1-418): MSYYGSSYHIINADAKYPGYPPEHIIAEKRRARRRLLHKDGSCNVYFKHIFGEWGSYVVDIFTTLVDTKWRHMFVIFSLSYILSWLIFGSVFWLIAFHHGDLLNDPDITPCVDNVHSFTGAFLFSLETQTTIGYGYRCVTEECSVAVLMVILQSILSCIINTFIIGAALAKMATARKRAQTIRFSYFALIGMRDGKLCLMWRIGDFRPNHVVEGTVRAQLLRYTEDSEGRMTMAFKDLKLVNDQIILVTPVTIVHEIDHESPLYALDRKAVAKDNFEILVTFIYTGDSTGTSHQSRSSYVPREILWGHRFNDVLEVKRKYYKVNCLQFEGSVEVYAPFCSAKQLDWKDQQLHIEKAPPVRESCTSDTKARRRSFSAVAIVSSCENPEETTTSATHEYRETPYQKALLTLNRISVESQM
# Kir6.2/SUR1 = Kir6.2/SUR1 (Homo sapiens, UniProt Q09428); assay: Quantitative thallium flux assay, inhibition, stably transfected T-REx-HEK293 cells; format: cell-based; conditions: for Effect on Kir6.2/SUR1 channel activity: VU0071063 activation or ATP depletion, full range of doses tested (up to 30 µM); for IC50 / IC50 Kir6.2/SUR1, ATP depletion / IC50 Kir6.2/SUR1, VU0071063 activation: thallium flux; for IC50 / IC50 Kir6.2/SUR1, ATP depletion: ATP depletion with sodium cyanide and 2-deoxy-glucose; for IC50 Kir6.2/SUR1, VU0071063 activation: in the presence of 10 uM VU0071063
# Protocol: Briefly, T-Rex-HEK293 cells underwent co-transfection with pcDNA5/TO-Kir6.1 or pcDNA5/TO-Kir6.2 (inducible expression) and pcDNA3.1-SUR2B or pcDNA3.1-SUR1 (constitutive expression) using Lipofectamine LTX following the manufacturer’s instructions and were then subjected to selection with antibiotics. Monoclonal cell lines were established through limiting dilution and characterization in thallium flux assays described below. […] KATP channel selectivity assays were performed in HEK293 cells transiently transfected with the indicated subunit using Lipofectamine LTX. The cells were incubated for 48 h after transfection before performing thallium flux assays.
# Thallium flux assays were conducted using the established methods. Stably transfected T-REx-HEK-293 cells expressing Kir6.2/SUR1 or Kir6.1/SUR2B were cultured overnight in polyamine-coated plates (black-walled, clear-bottomed; BD, Bedford, MA) at a density of 20,000 cells in 20 µl per well of cell culture media. The expression of Kir6.2/SUR1 or Kir6.1/SUR2B channels was induced by treating cells with 1 µg/ml tetracycline overnight. The following day, cells were rinsed with an assay buffer (Hanks’ Balanced Salt Solution supplied with 20 mM HEPES), loaded with the thallium-sensor dye Brilliant Thallos-AM AM (Ion Bioscience, San Marcos, TX) for 1 h, and then washed again with assay buffer to remove unincorporated dye. […] To activate KATP channels independent of activators with ATP-depletion method, cells were treated with a cocktail of metabolic inhibitors (2.5 mM sodium cyanide and 20 mM 2-deoxy glucose) for 25 min before imagine. Control and test compounds diluted freshly from DMSO stocks into assay buffer were added to wells for four minutes before adding 0.5 mM chloride-free thallium stimulus buffer (Ion Bioscience) to initiate thallium flux through the expressed KATP channels. Thallium flux was recorded from all 384-wells for 2 min before terminating the experiment. […] Selectivity assays against other Kir channels were performed as described previously.
# The kinetic fluorescence measurements (F) from each well were normalized to the initial reading (F0), producing static ratios (F/F0) that adjust for variations in cell count and dye uptake. […] The response (maxmin2) was determined by subtracting the min value from the max value. Percent inhibition was calculated by normalizing each well’s response to the positive and negative controls. Concentration–response curves were fitted using a single-site, four-parameter logistic function in Prism version 4.0 (GraphPad Software Inc., San Diego, CA) to calculate the half-maximal inhibitory concentration (IC50). Statistical comparisons of IC50 values were performed using an extra sum-of-squares F test and the Mann–Whitney test. A p-value of less than 0.05 was considered statistically significant.
# Kir6.2/SUR1, sequence (Q09428 whole entry, species assumed): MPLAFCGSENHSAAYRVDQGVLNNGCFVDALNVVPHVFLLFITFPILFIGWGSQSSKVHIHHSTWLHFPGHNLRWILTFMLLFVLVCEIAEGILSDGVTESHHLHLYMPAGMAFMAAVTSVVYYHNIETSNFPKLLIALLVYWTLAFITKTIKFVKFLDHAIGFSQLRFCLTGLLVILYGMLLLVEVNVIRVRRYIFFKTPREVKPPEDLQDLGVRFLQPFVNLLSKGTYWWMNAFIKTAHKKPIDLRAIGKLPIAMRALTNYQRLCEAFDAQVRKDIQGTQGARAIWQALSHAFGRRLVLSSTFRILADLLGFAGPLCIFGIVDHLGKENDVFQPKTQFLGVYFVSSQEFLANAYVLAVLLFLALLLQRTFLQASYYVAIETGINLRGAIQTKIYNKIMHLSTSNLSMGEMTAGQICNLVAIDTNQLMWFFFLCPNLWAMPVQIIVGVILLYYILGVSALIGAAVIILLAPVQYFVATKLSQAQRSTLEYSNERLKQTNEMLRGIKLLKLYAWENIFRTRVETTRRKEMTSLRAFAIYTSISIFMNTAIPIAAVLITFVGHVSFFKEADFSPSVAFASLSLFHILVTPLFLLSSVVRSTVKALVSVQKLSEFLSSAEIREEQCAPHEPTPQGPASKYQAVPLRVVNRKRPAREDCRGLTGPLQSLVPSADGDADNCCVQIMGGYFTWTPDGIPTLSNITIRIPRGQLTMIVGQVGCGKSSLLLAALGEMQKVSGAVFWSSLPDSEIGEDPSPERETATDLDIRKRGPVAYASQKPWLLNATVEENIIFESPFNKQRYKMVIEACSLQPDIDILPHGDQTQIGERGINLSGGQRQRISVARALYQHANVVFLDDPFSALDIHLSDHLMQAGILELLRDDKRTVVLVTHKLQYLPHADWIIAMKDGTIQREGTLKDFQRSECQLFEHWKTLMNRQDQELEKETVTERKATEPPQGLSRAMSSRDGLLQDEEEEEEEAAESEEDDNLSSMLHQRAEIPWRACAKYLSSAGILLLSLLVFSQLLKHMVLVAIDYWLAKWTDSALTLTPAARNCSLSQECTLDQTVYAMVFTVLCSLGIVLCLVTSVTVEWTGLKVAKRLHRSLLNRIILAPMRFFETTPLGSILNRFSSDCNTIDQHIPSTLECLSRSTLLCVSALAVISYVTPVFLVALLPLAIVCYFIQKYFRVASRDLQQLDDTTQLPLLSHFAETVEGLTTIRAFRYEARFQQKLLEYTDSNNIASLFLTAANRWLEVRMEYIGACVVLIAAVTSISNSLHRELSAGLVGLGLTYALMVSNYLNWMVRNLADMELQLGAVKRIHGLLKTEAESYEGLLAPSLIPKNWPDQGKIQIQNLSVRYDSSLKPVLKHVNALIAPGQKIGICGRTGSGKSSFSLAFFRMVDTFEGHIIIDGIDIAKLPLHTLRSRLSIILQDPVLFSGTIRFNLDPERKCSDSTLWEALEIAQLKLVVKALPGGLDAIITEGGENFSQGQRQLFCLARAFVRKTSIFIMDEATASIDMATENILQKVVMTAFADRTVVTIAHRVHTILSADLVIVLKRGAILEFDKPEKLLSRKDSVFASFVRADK
# Kir6.2/SUR1, sequence (Q14654 whole entry partner, species assumed): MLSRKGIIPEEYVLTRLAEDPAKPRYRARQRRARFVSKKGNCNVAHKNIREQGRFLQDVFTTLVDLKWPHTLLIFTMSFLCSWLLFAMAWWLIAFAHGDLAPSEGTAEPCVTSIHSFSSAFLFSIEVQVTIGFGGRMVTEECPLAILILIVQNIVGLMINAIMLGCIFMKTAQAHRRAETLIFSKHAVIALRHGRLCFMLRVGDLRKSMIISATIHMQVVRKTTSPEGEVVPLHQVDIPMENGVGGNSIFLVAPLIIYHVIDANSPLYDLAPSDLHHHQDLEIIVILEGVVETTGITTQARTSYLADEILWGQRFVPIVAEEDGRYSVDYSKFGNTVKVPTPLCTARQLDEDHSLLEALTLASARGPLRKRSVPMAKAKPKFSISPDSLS
SMILES,IC50 (Kir4.1/5.1) [µM],Effect on Kir6.2/SUR1 channel activity (Kir6.2/SUR1),IC50 (Kir6.2/SUR1) [µM],"IC50 Kir6.2/SUR1, ATP depletion (Kir6.2/SUR1)","IC50 Kir6.2/SUR1, VU0071063 activation (Kir6.2/SUR1)"
"O=C1c2oc3ccccc3c(=O)c2C(c2cccc(Br)c2)N1CCO (centres unmarked) [VU0605768, 1-(3-bromophenyl)-2-(2-hydroxyethyl)-1,2-dihydrochromeno[2,3-c]pyrrole-3,9-dione]",> 30,no apparent inhibitory activity; also recorded: no effect,> 30,no fit,no fit
"O=C(NCc1cc(-c2ccncc2)n(C2CCCC2)n1)Nc1cccs1 [VU0544086, 1-((1-cyclopentyl-5-(pyridin-4-yl)-1 H-pyrazol-3-yl)methyl)-3-(thiophen-2-yl)urea]",> 30,no apparent inhibitory activity; also recorded: no effect,> 30,no fit,no fit
"c1ccc2[nH]c(CSc3ncnc4c3oc3ccccc34)nc2c1 [VU0212387, 4-(((1 H-benzo[d]imidazol-2-yl)methyl)thio)benzofuro[3,2-d]pyrimidine]",> 30,no apparent inhibitory activity; also recorded: no effect,> 30,no fit,no fit
"O=C(NCC(O)(c1ccccc1)C(F)(F)F)c1ccc(OC(F)(F)F)cc1 (centres unmarked) [VU0543336, N-(3,3,3-trifluoro-2-hydroxy-2-phenylpropyl)-4-(trifluoromethoxy)benzamide]",> 30,no apparent inhibitory activity; also recorded: no effect,> 30,no fit,no fit

# Reference: article PMC11418212, “Characterization of four structurally diverse inhibitors of SUR2-containing KATP channels” (Channels, 2024)
